Reference: patent US8853406B2, “Substituted phenylenediamines as inhibitors of the interaction between MDM2 and P53” (Janssen Pharmaceutica NV, priority 2007, dated 2014)

Key:
p53 in U87MG cells = assay: U87MG p53-elisa as described in EP1809622; type: cell-based; conditions: lowest dose giving at least 140% of the p53 value of the control
Male NMRI mice = assay: Ro-4-1284 antagonism in mice (drug induced neurological effects); type: in vivo; conditions: Ro-4-1284 antagonism in mice
Protocol: The test is a modification of a procedure described by Colpaert et al. (1975).^3 Male NMRI mice (22±3 g) were housed in macrolon observation cages (L×W×H: 11×12×17 cm; n=3 per cage). At the start of the experiments immediately before test compound administration, the initial body temperature of the mice was measured with a precision of 0.1° C. by inserting the thermo-sensitive probe (1.0 mm diameter) of an electric thermometer (Comark) to a constant depth of 3 cm into the esophagus until a stable reading was obtained. The right eye pupil diameter was measured with a graduated microscope and expressed in 1/24 mm units. Fifteen min after test compound administration, the mice were challenged with Ro-4-1284 (10 mg/kg, s.c.). Ro-4-1284 is a reserpine-like vesicular monoamine transport (VMAT-2) inhibitor, which rapidly depletes secretory vesicles.^3,4 Fifteen, 30 and 60 min after challenge, the mice were scored for palpebral opening (0, 1, 2, 3, 4, 5) and locomotor activity (−1, 0, 1, 2, 3). At the 60-min interval, immediately after the scoring of overt behavior, the right eye pupil diameter and the esophageal temperature were measured again. Abnormal phenomena such as intensive sniffing, chewing, rearing, hyperemia, piloerection, salivation, tremors, convulsions and death were noted (the latter phenomena were also noted when occurring before Ro-4-1284 administration). Criteria for drug-induced effects: reversal of ptosis: palpebral opening score >1 at 15, 30 or 60 min (2.7, 0.5 and 0% false positive controls, respectively; n>350); induction of prostration: score −1 for locomotion at 15, 30 or 60 min (never observed in controls); reversal of hypomotility: score >0 for locomotion at 15, 30 and 60 min (2.2, 0.8 and 0% false positive controls, respectively); reversal of miosis: pupil diameter >5 units at 60 min (0.8% false positives); potentiation of hypothermia: temperature decrease (over the 1-h time interval)>9.0° C. (1.4% false positives); reversal of hypothermia: temperature decrease <3.0° C. (1.8% false positives).
According to the standard procedure, R0-4-1284 is injected 15 min following subcutaneous or oral administration and observations start 15 min later. Doses are initially given to 3 animals. When at least 2 out of the 3 animals show activity for at least one of the observations, the compound is considered active.

p53 in A2780 cells = assay: p53 ELISA in A2780 cells (capacity to preserve p53); type: cell-based; conditions: lowest dose giving at least 140% of the p53 value of the control, 16 hours
Protocol: The capacity of the compounds to preserve p53 in A2780 cells was measured with the p53 enzyme linked immunosorbent assay. The p53 assay is a “sandwich” enzyme immunoassay employing two polyclonal antibodies. A polyclonal antibody, specific for the p53 protein, has been immobilized onto the surface of the plastic wells. Any p53 present in the sample to be assayed will bind to the capture antibody. The biotinylated detector polyclonal antibody also recognizes p53 protein, and will bind to any p53, which has been retained by the capture antibody. The detector antibody, in turn, is bond by horseradish peroxidase-conjugated streptavidin. The horseradish peroxidase catalyses the conversion of the chromogenic substrate o-phenylene diamine, the intensity of which is proportional to the amount of p53 protein bond to the plate. The colored reaction product is quantified using a spectrophotometer. Quantitation is achieved by the construction of a standard curve using known concentrations of purified recombinant HIS tagged p53 protein (see example C.1.).
A2780 cells (ATCC) were cultivated in RPMI 1640 supplemented with 10% fetal calf serum (FCS), 2 mM L-glutamine and gentamycin at 37° C. in a humidified incubator with 5% CO2.
A2780 cells were seeded at 20.000 cells per well in a 96 well plate, cultured for 24 hours and treated with compound for 16 hours at 37° C. in a humidified incubator. After incubation, the cells were washed once with phosphate-buffered saline and 30 μl, per well, low salt RIPA buffer (20 mM tris, pH7.0, 0.5 mM EDTA, 1% Nonidet P40, 0.5% DOC, 0.05% SDS, 1 mM PMSF, 1 μg/ml aprotinin and 0.5 μ/ml leupeptin) was added. Plates were placed on ice for 30 minutes to complete the lysis. p53 protein was detected in de lysates by using the sandwich ELISA, described below.
High binding polystyrene EIA/RIA 96 well plates (Costar 9018) were coated with the capture antibody pAb1801 (Abcam ab28-100) at a concentration of 1 μg/ml in coating buffer (0.1 M NaHCO3 pH8.2), 50 μl per well. The antibody was allowed to adhere overnight at 4° C. Coated plates were washed once with phosphate-buffered saline (PBS)/0.05% Tween 20 and 300 μl of blocking buffer (PBS, 1% bovine serum albumins (BSA)) was added, for an incubation period of 2 hours at room temperature. Dilutions of purified recombinant HIS tagged p53 protein, ranging from 3-200 ng/ml, were made in blocking buffer and used as standards.
Plates were washed twice with PBS/0.05% Tween 20 and blocking buffer or standards were added at 80 μl/well. To the standards, 20 μl of lysis buffer was added. The samples were added to the other wells at 20 μl lysate/well. After an overnight incubation at 4° C., plates were washed twice with PBS/0.05% Tween 20. Aliquots of 100 μl secondary polyclonal antibody p53(FL-393) (Tebubio, sc-6243) at a concentration of 1 μg/ml in blocking buffer were added to each well and allowed to adhere for 2 hours at room temperature. Plates were washed three times with PBS/0.05% Tween 20. Detection antibody anti-rabbit HRP (sc-2004, Tebubio) at 0.04 μg/ml in PBS/1% BSA was added and incubated for 1 hour at room temperature. Plates were washed three times with PBS/0.05% Tween 20 and 100 μl of substrate buffer was added (substrate buffer was prepared shortly before use by adding 1 tablet of 10 mg o-phenylene diamine (OPD) from Sigma and 125 μl 3% H2O2 to 25 ml OPD buffer: 35 mM citric acid, 66 mM Na2HPO4, pH5.6). After 5 to 10 minutes, colour reaction was stopped by adding 50 μl stop buffer (1 M H2SO4) per well. The absorbance at dual wavelengths of 490/655 nm was measured using a Biorad micro plate reader and the results were then analyzed.
For each experiment, controls (containing no drug) and a blank incubation (containing no cells or drugs) were run in parallel. The blank value was subtracted from all control and sample values. For each sample, the value of p53 (in absorbance units) was expressed as the percentage of the value for p53 present in the control. […]

In the case of `Cc1cc(Nc2ccncc2)ccc1NCCc1c[nH]c2ccccc12`, the “U87MG p53-elisa LAD” value (p53 in U87MG cells) is reported as 1.00E-05, the “drug induced neurological side effects” value (Male NMRI mice) is reported as “yes” and the “A2780 p53-elisa LAD” value (p53 in A2780 cells) is reported as 3.00E-06.
With `c1ccc2c(CCNc3ccc(Nc4ccncc4)cc3)c[nH]c2c1` the “U87MG p53-elisa LAD” value (p53 in U87MG cells) was 3.00E-06, the “drug induced neurological side effects” value (Male NMRI mice) was “yes” and the “A2780 p53-elisa LAD” value (p53 in A2780 cells) was 1.00E-06.
In the case of `Cc1cccc2c(CCNc3ccc(Nc4ccncc4)cc3)c[nH]c12`, the “U87MG p53-elisa LAD” value (p53 in U87MG cells) is reported as 1.00E-06, the “drug induced neurological side effects” value (Male NMRI mice) is reported as “yes” and the “A2780 p53-elisa LAD” value (p53 in A2780 cells) is reported as 3.00E-07.
